Laboratory results reported in BindingDB's records for doi:10.7270/Q2J38R0R (Burnham Center For Chemical Genomics, 2010).

The molecules below were run against Intestinal-type alkaline phosphatase (Mus musculus, UniProt P24822) (assay: mouse intestinal alkaline phosphatase activators, dose response, biochemical, luminescence, uHTS hits (AID 488783)).
Intestinal-type alkaline phosphatase, sequence (P24822 whole entry, looked up): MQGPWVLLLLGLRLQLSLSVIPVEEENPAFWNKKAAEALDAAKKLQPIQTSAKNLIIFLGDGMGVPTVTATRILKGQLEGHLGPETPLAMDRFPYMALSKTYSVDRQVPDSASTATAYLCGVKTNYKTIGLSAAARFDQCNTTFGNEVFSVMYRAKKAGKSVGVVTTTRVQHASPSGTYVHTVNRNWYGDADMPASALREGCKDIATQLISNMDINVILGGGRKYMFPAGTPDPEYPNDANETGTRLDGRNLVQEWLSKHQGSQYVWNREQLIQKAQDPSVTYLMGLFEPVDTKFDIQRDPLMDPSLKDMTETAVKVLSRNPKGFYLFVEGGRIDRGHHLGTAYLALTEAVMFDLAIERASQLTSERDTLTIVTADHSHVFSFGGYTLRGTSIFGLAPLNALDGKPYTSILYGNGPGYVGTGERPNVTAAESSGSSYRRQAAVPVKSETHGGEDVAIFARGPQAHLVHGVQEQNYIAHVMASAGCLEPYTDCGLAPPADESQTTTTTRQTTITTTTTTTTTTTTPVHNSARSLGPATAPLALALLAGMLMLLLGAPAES

EC50 [µM]	Compound
17.5	CN(CCO)c1ccc(CN=Nc2ccc([N+](=O)[O-])cc2S(=O)(=O)Nc2ccccc2C(=O)O)cc1
58.7	Cc1cc(=O)[nH]c(N=NCc2ccc(O)c(O)c2)n1 [MLS001194906]
4.96	O=C(NN=CC1=CC(=O)C(=O)CC1)NN=CC1=CC(=O)C(=O)CC1 [1,3-bis[[(Z)-(3-hydroxy-4-oxocyclohexa-2,5-dien-1-ylidene)methyl]amino]urea]
9.93	O=C1CC(=O)c2c(O)cc(O)c(O)c2C1=O [4,5,7,8-tetrahydroxy-1,2-naphthoquinone]
